Twelve compounds from patent US9663496B2, “AMPK-activating heterocyclic compounds and methods for using the same” (Rigel Pharmaceuticals, Inc., priority 2010, dated 2017) can be followed below.

This assay has as its target AMPK. As to the kind of experiment: AMPK activation, enzyme-linked immunosorbent assay. The class given is biochemical. The settings on record: EC50 for AMPK activation, ELISA. A digest of the protocol: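 Kit-based immunoassay; compounds screened as activators; standard reagents and protocol.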
A general note: In an ELISA, binding on a coated surface is turned into a signal by an enzyme label.
The compound `COc1ccc(C(=O)C2CCN(C(=O)c3ccc(C(=O)Nc4ccc(Oc5ccc(S(C)(=O)=O)cc5)nc4)cn3)CC2)cc1` [Compound 465, 6-(4-(4-methoxybenzoyl)piperidine-1-carbonyl)-N-(6-(4-(methylsulfonyl)phenoxy)pyridin-3-yl)nicotinamide] displayed an EC50 of less than 0.5 µM. The result for `CS(=O)(=O)c1ccc(Oc2ccc(NC(=O)c3ccc(C(=O)N4CCC(C(=O)c5ccc(F)cc5F)CC4)nc3)cn2)cc1` [Compound 466, 6-(4-(2,4-difluorobenzoyl)piperidine-1-carbonyl)-N-(6-(4-(methylsulfonyl)phenoxy)pyridin-3-yl)nicotinamide] reads less than 0.5 µM; that for `COc1ccc(C(=O)C2CCN(C(=O)c3ccc(C(=O)Nc4ccc(S(=O)(=O)c5ccc(F)cc5)nc4)cn3)CC2)cc1` [Compound 467, N-(6-(4-fluorophenylsulfonyl)pyridin-3-yl)-6-(4-(4-methoxybenzoyl)piperidine-1-carbonyl)nicotinamide], 1 to 5 µM; that for `COc1ccc(C(=O)C2CCN(C(=O)c3ccc(C(=O)Nc4ccc(Oc5ccc(C#N)cc5)cn4)cn3)CC2)cc1` [Compound 468, N-(5-(4-cyanophenoxy)pyridin-2-yl)-6-(4-(4-methoxybenzoyl)piperidine-1-carbonyl)nicotinamide], less than 0.5 µM. In turn, `N#Cc1ccc(Oc2ccc(NC(=O)c3ccc(C(=O)N4CCC(C(=O)c5ccc(F)cc5F)CC4)nc3)nc2)cc1` [Compound 469, N-(5-(4-cyanophenoxy)pyridin-2-yl)-6-(4-(2,4-difluorobenzoyl)piperidine-1-carbonyl)nicotinamide] yielded an EC50 of less than 0.5 µM. In turn, `O=C(NC1CCN(Cc2ccc(OC(F)(F)F)cc2)CC1)c1ccc(C(=O)N2CCC(S(=O)(=O)c3ccc(F)cc3)CC2)nc1` [Compound 470, 6-(4-(4-fluorophenylsulfonyl)piperidine-1-carbonyl)-N-(1-(4-(trifluoromethoxy)benzyl)piperidin-4-yl)nicotinamide] registered an EC50 of less than 0.5 µM. The result for `N#Cc1ccc(CN2CCC(NC(=O)c3ccc(C(=O)N4CCC(S(=O)(=O)c5ccc(F)cc5)CC4)nc3)CC2)cc1` [Compound 471, N-(1-(4-cyanobenzyl)piperidin-4-yl)-6-(4-(4-fluorophenylsulfonyl)piperidine-1-carbonyl)nicotinamide] reads 1 to 5 µM; that for `N#Cc1ccc(Oc2ccc(NC(=O)c3ccc(C(=O)N4CCC(S(=O)(=O)c5ccc(F)cc5)CC4)nc3)cn2)cc1` [Compound 472, N-(6-(4-cyanophenoxy)pyridin-3-yl)-6-(4-(4-fluorophenylsulfonyl)piperidine-1-carbonyl)nicotinamide], 1 to 5 µM. `CC(=O)c1ccc(Oc2ccc(NC(=O)c3ccc(C(=O)N4CCC(S(=O)(=O)c5ccc(F)cc5)CC4)nc3)cn2)cc1` [Compound 473, N-(6-(4-acetylphenoxy)pyridin-3-yl)-6-(4-(4-fluorophenylsulfonyl)piperidine-1-carbonyl)nicotinamide] yielded an EC50 of 1 to 5 µM.

As to `COc1ccc(CN2CCC(NC(=O)c3ccc(C(=O)N4CCC(S(=O)(=O)c5ccc(F)cc5)CC4)nc3)CC2)cc1` [Compound 474, 6-(4-(4-fluorophenylsulfonyl)piperidine-1-carbonyl)-N-(1-(4-methoxybenzyl)piperidin-4-yl)nicotinamide], the concentration for a half-maximal effect (EC50) was in the range of 1 to 5 µM.

As for `COc1cccc(CN2CCC(NC(=O)c3ccc(C(=O)N4CCC(S(=O)(=O)c5ccc(F)cc5)CC4)nc3)CC2)c1` [Compound 475, 6-(4-(4-fluorophenylsulfonyl)piperidine-1-carbonyl)-N-(1-(3-methoxybenzyl)piperidin-4-yl)nicotinamide], the EC50 was 1 to 5 µM.

Turning to `N#Cc1ccc(Oc2ccc(NC(=O)c3ccc(C(=O)N4CCN(Cc5ccc(F)cc5)CC4)nc3)cn2)cc1` [Compound 476, N-(6-(4-cyanophenoxy)pyridin-3-yl)-6-(4-(4-fluorobenzyl)piperazine-1-carbonyl)nicotinamide], the EC50 is less than 0.5 µM.

As usually defined, the EC50 is the concentration at which the effect is half-maximal. Read a low EC50 as a more potent agent.
